Measurements from patent US12139492B2 (Endotarget Inc., priority 2021, dated 2024).
Like-named read-outs stand apart in the source and are kept apart here.

Legend:
BTK [1] = biological target: T1, BTK (Homo sapiens, UniProt Q06187); test: Degradation of BTK protein in Namalwa cells (Western blot; DC50, Dmax); conditions: for degradation of BTK protein: Namalwa B lymphocyte cells, various concentrations, 24 hours, Western blot; for DC50: cell line not given
BTK [2] = biological target: T1, BTK; test: Degradation of BTK protein in JeKo-1 cells (Western blot; DC50, Dmax); conditions: JeKo-1 mantle cell lymphoma cells, various concentrations, 24 hours
Method: (§2) Namalwa, JeKo-1, or Mino cells were plated in 24-well plates at a density of 10^5 cells/well. Media containing various drug concentrations were added on the day following plating (day 0) and allowed to incubate for 24 hours for Western blot. Media with the tested compound was changed every other day. […] Media were removed and dishes were washed with 1×DPBS. Lysates were made by adding 150 μL of complete lysis solution and scraping cells into a 1.5 mL microcentrifuge tube. Lysates were placed on a rotisserie at 4° C. for 30 min and then spun at 4° C. at 12000 rcf for 10 min. Supernatants were assayed for protein content, snap-frozen, and stored a −80° C. if not run immediately. Then 50 μg of protein was subjected to Western blot protocol. […] They were then imaged on a LICOR infrared scanner.

BTK [3] = biological target: T1, BTK; test: BTK degradation, DC50 and Dmax of Table 1 (cell line not given); format: cell-based; set-up: endogenous in cells; conditions: for DC50: concentration giving 50% reduction of BTK expression level
Mino cells = test: Antiproliferative effect, MTS cell viability assay, Mino cells; format: cell-based; conditions: Mino mantle cell lymphoma cells, read-out: IC50 (anti-proliferation) Mino cells
In short: (§1)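 MTS read-out, A490 of formazan from metabolically active cells; compound 0–10 μM (0, 0.001, 0.01, 0.1, 1, 10 μM), 72 h exposure.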

JeKo-1 cells = test: Antiproliferative effect, MTS cell viability assay, JeKo-1 cells; format: cell-based; conditions: JeKo-1 mantle cell lymphoma cells, read-out: IC50 (anti-proliferation) JeKO-1 cells
In short: as §1

BTK [4] = biological target: T1, BTK; test: Degradation of BTK protein in Mino cells (Western blot; DC50, Dmax); conditions: Mino mantle cell lymphoma cells, various concentrations, 24 hours
Method: as §2

[5] = read-out: DC50 (BTK degradation), concentration giving 50% reduction of BTK expression level
[6] = read-out: Dmax (BTK degradation)

T1 sequence (Q06187 whole entry): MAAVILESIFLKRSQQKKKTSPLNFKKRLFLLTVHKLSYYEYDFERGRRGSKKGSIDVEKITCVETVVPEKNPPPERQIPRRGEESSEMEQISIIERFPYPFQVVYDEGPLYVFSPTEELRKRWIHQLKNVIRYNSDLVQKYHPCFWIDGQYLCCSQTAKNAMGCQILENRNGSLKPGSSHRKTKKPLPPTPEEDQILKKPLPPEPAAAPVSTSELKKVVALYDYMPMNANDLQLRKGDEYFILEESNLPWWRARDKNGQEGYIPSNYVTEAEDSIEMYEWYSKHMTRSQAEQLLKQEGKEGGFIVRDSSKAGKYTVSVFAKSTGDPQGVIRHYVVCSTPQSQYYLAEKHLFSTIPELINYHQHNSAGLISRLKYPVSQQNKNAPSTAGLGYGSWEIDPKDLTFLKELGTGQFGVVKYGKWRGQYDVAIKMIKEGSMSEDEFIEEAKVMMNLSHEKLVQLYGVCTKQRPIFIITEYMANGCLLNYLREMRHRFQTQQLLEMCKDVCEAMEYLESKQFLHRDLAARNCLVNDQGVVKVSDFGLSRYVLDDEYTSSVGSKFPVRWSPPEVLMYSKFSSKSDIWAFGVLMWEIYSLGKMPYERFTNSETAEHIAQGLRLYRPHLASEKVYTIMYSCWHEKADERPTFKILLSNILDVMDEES

Row | Compound | degradation of BTK protein (BTK [1]) | degradation of BTK protein (BTK [2]) | Dmax (BTK [3]) [%] | DC50 (BTK [3]) [nM] | IC50 (Mino cells; Homo sapiens) [nM] | IC50 (JeKo-1 cells; Homo sapiens) [nM] | IC50 (Mino cells; Homo sapiens, MINO) [nM] | Dmax (BTK [1]) [%] | DC50 (BTK [1]; BTK degradation) [nM] | degradation of BTK protein (BTK [4]) | DC50 (BTK [1]; [5]) [nM] | Dmax (BTK [1]; [6]) [%] | IC50 (Mino cells) [nM] | IC50 (JeKo-1 cells) [nM]
1 | Nc1ncnc2c1c(-c1ccc(Oc3ccccc3)cc1)nn2C1CCN(CC2CCN(C(=O)N3CCN(c4ccc5c(c4)CN(C4CCC(=O)NC4=O)C5=O)CC3)CC2)CC1 (centres unmarked) [Compound 36, 3-(5-(4-(4-((4-(4-amino-3-(4-phenoxyphenyl)-1H-pyrazolo(3,4-d)pyrimidin-1-yl)piperidin-1-yl)methyl)piperidine-1-carbonyl)piperazin-1-yl)-1-oxoisoindolin-2-yl)piperidine-2,6-dione] | dose-dependent degradation | dose-dependent degradation | > 90 | < 10 | < 1000 | < 1000 |  |  |  |  |  |  |  | 
2 | Nc1ncnc2c1c(-c1ccc(Oc3ccccc3)cc1)nn2C1CCN(C(=O)N2CCC(CN3CCN(c4ccc5c(c4)CN(C4CCC(=O)NC4=O)C5=O)CC3)CC2)CC1 (centres unmarked) [Compound 86, 3-(5-(4-((1-(4-(4-amino-3-(4-phenoxyphenyl)-1H-pyrazolo(3,4-d)pyrimidin-1-yl)piperidine-1-carbonyl)piperidin-4-yl)methyl)piperazin-1-yl)-1-oxoisoindolin-2-yl)piperidine-2,6-dione] | dose-dependent degradation | dose-dependent degradation | > 90 | < 10 |  | < 1000 | < 1000 |  |  |  |  |  |  | 
3 | Nc1ncnc2c1c(-c1ccc(Oc3ccccc3)cc1)nn2C1CCN(C2CCN(CC3CCN(c4ccc5c(c4)C(=O)N(C4CCC(=O)NC4=O)C5=O)CC3)CC2)CC1 (centres unmarked) [Compound 213, 5-(4-((4-(4-amino-3-(4-phenoxyphenyl)-1H-pyrazolo(3,4-d)pyrimidin-1-yl)-(1,4′-bipiperidin)-1′-yl)methyl)piperidin-1-yl)-2-(2,6-dioxopiperidin-3-yl)isoindoline-1,3-dione] | dose-dependent degradation | dose-dependent degradation |  |  |  | < 1000 | < 1000 | > 90 | < 10 | dose-dependent degradation |  |  |  | 
4 | Nc1ncnc2c1c(-c1ccc(Oc3ccccc3)cc1)nn2C1CCN(CCOCCOCCN2CCC(c3ccc4c(c3)CN(C3CCC(=O)NC3=O)C4=O)CC2)CC1 (centres unmarked) [Compound 419, 3-(5-(1-(2-(2-(2-(4-(4-amino-3-(4-phenoxyphenyl)-1H-pyrazolo[3,4-d]pyrimidin-1-yl)piperidin-1-yl)ethoxy)ethoxy)ethyl)piperidin-4-yl)-1-oxoisoindolin-2-yl)piperidine-2,6-dione] | dose-dependent degradation | dose-dependent degradation |  |  |  |  |  |  |  | dose-dependent degradation | < 10 | > 90 | 1000 to 10000 | 1000 to 10000
5 | Nc1ncnc2c1c(-c1ccc(Oc3ccccc3)cc1)nn2C1CCN(CC2CCN(/C=C/C(=O)CN3CCN(c4ccc5c(c4)CN(C4CCC(=O)NC4=O)C5=O)CC3)CC2)CC1 (centres unmarked) [Compound 420, (E)-3-(5-(4-(4-(4-((4-(4-amino-3-(4-phenoxyphenyl)-1H-pyrazolo[3,4-d]pyrimidin-1-yl)piperidin-1-yl)methyl)piperidin-1-yl)-2-oxobut-3-en-1-yl)piperazin-1-yl)-1-oxoisoindolin-2-yl)piperidine-2,6-dione] | dose-dependent degradation | dose-dependent degradation |  |  |  | 1000 to 10000 | 1000 to 10000 |  |  | dose-dependent degradation | < 10 | > 90 |  | 
6 | Nc1ncnc2c1c(-c1ccc(Oc3ccccc3)cc1)nn2C1CCN(C2CCN(CC3CN(c4ccc5c(c4)C(=O)N(C4CCC(=O)NC4=O)C5=O)C3)C2)CC1 (centres unmarked) [Compound 425, 5-(3-((3-(4-(4-amino-3-(4-phenoxyphenyl)-1H-pyrazolo(3,4-d)pyrimidin-1-yl)piperidin-1-yl)pyrrolidin-1-yl)methyl)azetidin-1-yl)-2-(2,6-dioxopiperidin-3-yl)isoindoline-1,3-dione] | dose-dependent degradation | dose-dependent degradation |  |  |  | 1000 to 10000 | 1000 to 10000 |  |  |  | 10 to 50 | > 90 |  | 
7 | Nc1ncnc2c1c(-c1ccc(Oc3ccccc3)cc1)nn2C1CCN(CC2CN(CC3CCN(c4ccc5c(c4)C(=O)N(C4CCC(=O)NC4=O)C5=O)CC3)C2)CC1 (centres unmarked) [Compound 439, 5-(4-((3-((4-(4-amino-3-(4-phenoxyphenyl)-1H-pyrazolo(3,4-d)pyrimidin-1-yl)piperidin-1-yl)methyl)azetidin-1-yl)methyl)piperidin-1-yl)-2-(2,6-dioxopiperidin-3-yl)isoindoline-1,3-dione] | dose-dependent degradation | dose-dependent degradation |  |  |  | 1000 to 10000 | < 1000 |  |  | dose-dependent degradation | < 10 | > 90 |  | 
8 | Nc1ncnc2c1c(-c1ccc(Oc3ccccc3)cc1)nn2C1CCN(C2CCN(CC3CCN(c4ccc5c(c4)C(=O)N(C4CCC(=O)NC4=O)C5=O)CC3)C2)CC1 (centres unmarked) [Compound 449, 5-(4-((3-(4-(4-amino-3-(4-phenoxyphenyl)-1H-pyrazolo(3,4-d)pyrimidin-1-yl)piperidin-1-yl)pyrrolidin-1-yl)methyl)piperidin-1-yl)-2-(2,6-dioxopiperidin-3-yl)isoindoline-1,3-dione] | dose-dependent degradation |  |  |  |  | < 1000 | < 1000 |  |  | dose-dependent degradation | < 10 | > 90 |  | 
9 | Nc1ncnc2c1c(-c1ccc(Oc3ccccc3)cc1)nn2C1CCN(C(=O)N2CC(N3CCN(c4ccc5c(c4)C(=O)N(C4CCC(=O)NC4=O)C5=O)CC3)C2)CC1 (centres unmarked) [Compound 477, 5-(4-(1-(4-(4-amino-3-(4-phenoxyphenyl)-1H-pyrazolo[3,4-d]pyrimidin-1-yl)piperidine-1-carbonyl)azetidin-3-yl)piperazin-1-yl)-2-(2,6-dioxopiperidin-3-yl)isoindoline-1,3-dione] |  |  |  |  |  | < 1000 | < 1000 |  |  | dose-dependent degradation | < 10 | > 90 |  | 
10 | Nc1ncnc2c1c(-c1ccc(Oc3ccccc3)cc1)nn2C1CCN(C(=O)N2CC(N3CCN(c4ccc5c(c4)CN(C4CCC(=O)NC4=O)C5=O)CC3)C2)CC1 (centres unmarked) [Compound 478, 3-(5-(4-(1-(4-(4-amino-3-(4-phenoxyphenyl)-1H-pyrazolo[3,4-d]pyrimidin-1-yl)piperidine-1-carbonyl)azetidin-3-yl)piperazin-1-yl)-1-oxoisoindolin-2-yl)piperidine-2,6-dione] | dose-dependent degradation |  |  |  |  | < 1000 | < 1000 |  |  | dose-dependent degradation | < 10 | > 90 |  | 
11 | Nc1ncnc2c1c(-c1ccc(Oc3ccccc3)cc1)nn2C1CCN(C(=O)N2CC(N3CCN(c4ccc5c(c4)CN([C@H]4CCC(=O)NC4=O)C5=O)CC3)C2)CC1 [Compound 484, (S)-3-(5-(4-(1-(4-(4-amino-3-(4-phenoxyphenyl)-1H-pyrazolo[3,4-d]pyrimidin-1-yl)piperidine-1-carbonyl)azetidin-3-yl)piperazin-1-yl)-1-oxoisoindolin-2-yl)piperidine-2,6-dione] |  |  |  |  |  | < 1000 | < 1000 |  |  | dose-dependent degradation | < 10 | > 90 |  | 
